The values that follow come from publication PMC8809056 (Science (New York, N.y.), 2021).

Each structure is given as a SMILES string.

The subject of one series is OC43. In words: OC43 infection of A549 cells, viral nucleoprotein staining. The format is cell-based, human beta coronavirus OC43. The conditions noted are these: for Inhibition of OC43 infection, dose-response validation (in words): A549 cells; for EC50: Betacoronavirus 1, OC43, A549, 96 h, read-out: EC50 against OC43 infection.
A further series has as its system 3CL. Details: method as in doi:10.1101/2020.08.29.272864. The conditions noted are these: read-out: Previously reported IC50 in cells; cited from earlier work.
The target in the next series is T1, SARS-CoV-2 3CL (Severe acute respiratory syndrome coronavirus 2, UniProt P0DTD1).
T1 construct: the main viral protease, known as Mpro, 3CLpro, or nonstructural protein 5 (nsp5); made in house
Description: Fluorescence-based 3CL enzyme activity assay in vitro (enzyme kinetics, Dixon plot). The format is biochemical. The conditions noted are these: range of substrate and inhibitor concentrations, SigmaPlot fit.

The next series addresses T2, PLpro (Severe acute respiratory syndrome coronavirus 2, UniProt P0DTD1).
T2 construct: the papain-like protease, PLpro, a domain within nsp3
In words: PLpro activity assay. Format: biochemical, SARS-CoV-2. The settings on record: fig. S7.

Another series concerns the target 3C protease (Coxsackievirus B3, UniProt P03313). Format: cell-based, picornaviruses.
For another series, the system named is multiple picornaviruses. In words: Replication of picornaviruses. Format: cell-based. The settings on record: fig. S8B.
The next series relates to other RNA viruses. In words: Replication of other RNA viruses. Format: cell-based.
The test system of series [1] is SARS-CoV-2 (nCoV/Washington/1/2020). Format: in vivo, mice.
The conditions of series [2]: mouse, in vivo.
For series [3] the following is noted: feline model of asthma; cited from earlier work.
The mark [4] stands for this setting: 25 mg kg−1 twice a day, day six.

Chain of 3C protease (P03313 1541-1723 limits assumed): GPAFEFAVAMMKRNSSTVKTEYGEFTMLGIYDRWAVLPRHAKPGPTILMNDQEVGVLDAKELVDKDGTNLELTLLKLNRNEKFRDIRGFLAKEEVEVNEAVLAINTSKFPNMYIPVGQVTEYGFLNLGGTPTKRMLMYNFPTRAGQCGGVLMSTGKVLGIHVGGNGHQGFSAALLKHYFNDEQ
Description for SARS-CoV-2 3CL: Individual measurements are shown as semitransparent gray circles. Error bars depict means ± SEM. […] Individual measurements are shown as circles. […] RFU, relative fluorescence units.
To test this, we measured the rate of the 3CL enzymatic reaction in vitro using a fluorescence-based enzyme activity assay ([29]). We measured the rate of 3CL activity in a range of substrate and inhibitor concentrations and fitted the data to equations describing different modes of inhibition using SigmaPlot Enzyme Kinetics Module 1.3 (see methods).

In the case of `Cc1ccc(NC(=O)c2ccc(CN3CCNCC3)cc2)cc1Nc1nc(-c2cccnc2)cs1` [AB3280], the “Inhibition of OC43 infection, dose-response validation (in words)” value (from here on “Inhibition of OC43 infection”) with OC43 was “maintains its antiviral activity”.
As a reminder, the EC50 is the concentration giving half of the maximal effect. For `C[C@@H]1[C@H](O)[C@@H](C)/C=C/C=C/C=C/C=C/C=C/C=C/C=C/[C@H](O[C@@H]2O[C@H](C)[C@@H](O)[C@H](N)[C@@H]2O)C[C@@H]2O[C@](O)(C[C@@H](O)C[C@@H](O)[C@H](O)CC[C@@H](O)C[C@@H](O)CC(=O)O[C@H]1C)C[C@H](O)[C@H]2C(=O)O` [Amphotericin B], the EC50 with OC43 is 0.19 µM.
As for `Cc1ccc(NC(=O)c2ccc(CN3CC[C@H](N(C)C)C3)c(C(F)(F)F)c2)cc1Nc1nccc(-c2cncnc2)n1` [Bafetinib], in the series on OC43, the EC50 stood at 2.1 µM.
For the compound `CCCCOC(=O)c1ccc(N)cc1` [Butamben], in the series on OC43, the EC50 came to 3.1 µM.
Same read-out and setting: next, `CCCCOC(=O)c1ccc(O)cc1` [Butylparaben]: 1.7 µM; `COc1cc2c(Oc3ccc4[nH]c(C)cc4c3F)ncnc2cc1OCCCN1CCCC1` [Cediranib]: 0.52 µM.
The same measure, in the same setting: the value for `COc1ccc2cc1Oc1ccc(cc1)C[C@H]1c3c(cc4c(c3Oc3cc5c(cc3OC)CCN(C)[C@@H]5C2)OCO4)CCN1C` [Cepharanthine] was 0.77 µM.
Turning to `CN(C)CCCN1c2ccccc2CCc2ccc(Cl)cc21` [Clomipramine], in the series on OC43 (10 μM, 4 days), the “OC43 infection in drug-repurposing screen” value is recorded as “top hits”.
In the case of `COC(=O)N[C@H](C(=O)N1CCC[C@H]1c1nc(-c2ccc3c(c2)O[C@@H](c2ccccc2)n2c-3cc3cc(-c4c[nH]c([C@@H]5CCCN5C(=O)[C@@H](NC(=O)OC)C(C)C)n4)ccc32)c[nH]1)C(C)C` [Elbasvir], the EC50 in the series on OC43 amounted to 0.17 µM.
As to `OCCN1CCN(CCC=C2c3ccccc3Sc3ccc(C(F)(F)F)cc32)CC1` [Flupenthixol], the EC50 in the series on OC43 was 1.8 µM.
Usually IC50 stands for the concentration at which inhibition is half-maximal. On to `O=C(Oc1cncc(Cl)c1)c1cccc2[nH]ccc12` [GRL-0496], for which the IC50 in the series on 3CL was 5 µM.
Take `CS(=O)(=O)CCNCc1ccc(-c2ccc3ncnc(Nc4ccc(OCc5cccc(F)c5)c(Cl)c4)c3c2)o1` [Lapatinib]: in the series with OC43, the EC50 was 3.1 µM.
Take `Cc1ccc(NC(=O)c2ccc(CN3CCN(C)CC3)cc2)cc1Nc1nc(-c2cccnc2)cs1` [Masitinib]: the EC50 in the series on OC43 turned out to be 2.1 µM. Moreover, the “Mode of 3CL inhibition” value on SARS-CoV-2 3CL is reported as “competitive inhibition gave the best fit”. Further, the “Effect on PLpro activity” value at PLpro is “no effect”. Also, on 3C protease, the “Effect on 3C protease activity” value was “significantly inhibited the activity of the 3C protease”. Further, the “Effect on replication of picornaviruses” value in the series on multiple picornaviruses is recorded as “effective in blocking the replication of multiple picornaviruses”. Also, in the series with other RNA viruses, the “Effect on replication of other RNA viruses” value is on record as “not the replication of other RNA viruses”. In series [1] (setting [4]), the “Reduction in viral titers in the lungs and nose (log)” value is on record as “greater than two-log reduction”; the “Reduction of the viral load” value is more than 99%. The “Concentrations of proinflammatory cytokines (such as IL-1β, IFN-γ) in the lungs” value in series [1] (day six) is listed as “significantly reduced”. Besides, the Overall lung pathology result in [1] (day six, blindly scored 0 to 4) was “improved overall lung pathology”. Also, in [1] (mouse, in vivo), the “Reduction in viral titers in the lungs” value was more than 200 fold and the “Reduction in viral titers in the nose” value is more than 200 fold. In addition, in [1] (up to 10 days), the “Survival, weight loss and clinical scores” value was “improvements in survival”. Further, in [2], the Tolerability of dose entry was “well tolerated, with minimal weight loss”. Moreover, the “Airway inflammation and lung functions” value in series [3] is “decrease airway inflammation and improve lung functions”.
As to `O=C(c1ccc(OCCN2CCCCC2)cc1)c1c(-c2ccc(O)cc2)sc2cc(O)ccc12` [Raloxifene], the EC50 with OC43 was found to be 2.7 µM.
Same read-out and setting: the value for `CCC(CC)COC(=O)[C@H](C)N[P@](=O)(OC[C@H]1O[C@@](C#N)(c2ccc3c(N)ncnn23)[C@H](O)[C@@H]1O)Oc1ccccc1` [Remdesivir] was 0.96 µM.
Same read-out and setting: the value for `COC[C@H]1C[C@@H](c2nc(-c3ccc4c(c3)COc3cc5c(ccc6nc([C@@H]7CC[C@H](C)N7C(=O)[C@@H](NC(=O)OC)C(C)C)[nH]c65)cc3-4)c[nH]2)N(C(=O)[C@H](NC(=O)OC)c2ccccc2)C1` [Velpatasvir] was 2 µM.
Turning to `CC[C@H]1OC(=O)[C@H](C)[C@@H](O[C@H]2C[C@@](C)(OC)[C@@H](O)[C@H](C)O2)[C@H](C)[C@@H](O[C@@H]2O[C@H](C)C[C@H](N(C)C)[C@H]2O)[C@](C)(O)C[C@@H](C)C(=O)[C@H](C)[C@@H](O)[C@]1(C)O` [erythromycin], in the series on OC43, the “Inhibition of OC43 infection” value is on record as “failed validation”.
Turning to `Cc1ccc(O)c([C@H](CCN(C(C)C)C(C)C)c2ccccc2)c1` [tolertodine], the “Inhibition of OC43 infection” value in the series with OC43 was “weak inhibitors of OC43 infection”.
